Measurements from patent US8394969B2, “Cyclic benzimidazole derivatives useful as anti-diabetic agents” (Merck Sharp & Dohme Corp., priority 2008, dated 2013).
Counter-ions that a name gives are not always drawn.

The compounds below were run against recombinant human AMPK complex 1 (containing α1β1γ1) (Homo sapiens, UniProt Q13131+Q9Y478) (assay: […] (in vitro AMPK activation assay)). Details: read-out: % Maximum AMP Activation of human AMPK Complex 1, recombinant human AMPK complex 1 (α1β1γ1); basal activity subtracted.
Sequence of recombinant human AMPK complex 1 (containing α1β1γ1) (Q13131 whole entry): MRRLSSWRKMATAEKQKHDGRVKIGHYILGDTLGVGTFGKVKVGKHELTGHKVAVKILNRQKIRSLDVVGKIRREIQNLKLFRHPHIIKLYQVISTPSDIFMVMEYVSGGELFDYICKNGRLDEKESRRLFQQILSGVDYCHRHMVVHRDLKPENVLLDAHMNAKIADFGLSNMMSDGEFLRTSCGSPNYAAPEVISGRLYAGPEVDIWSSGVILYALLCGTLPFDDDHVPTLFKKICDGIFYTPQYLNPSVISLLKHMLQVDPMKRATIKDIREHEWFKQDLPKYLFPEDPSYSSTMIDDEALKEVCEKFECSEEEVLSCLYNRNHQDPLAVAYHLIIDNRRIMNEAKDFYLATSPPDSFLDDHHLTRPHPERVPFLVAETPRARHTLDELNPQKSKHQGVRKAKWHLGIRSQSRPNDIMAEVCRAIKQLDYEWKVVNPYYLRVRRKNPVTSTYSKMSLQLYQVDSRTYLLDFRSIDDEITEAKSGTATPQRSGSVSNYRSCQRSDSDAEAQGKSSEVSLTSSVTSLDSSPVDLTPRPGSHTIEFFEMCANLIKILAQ
Sequence of recombinant human AMPK complex 1 (containing α1β1γ1) (Q9Y478 whole entry): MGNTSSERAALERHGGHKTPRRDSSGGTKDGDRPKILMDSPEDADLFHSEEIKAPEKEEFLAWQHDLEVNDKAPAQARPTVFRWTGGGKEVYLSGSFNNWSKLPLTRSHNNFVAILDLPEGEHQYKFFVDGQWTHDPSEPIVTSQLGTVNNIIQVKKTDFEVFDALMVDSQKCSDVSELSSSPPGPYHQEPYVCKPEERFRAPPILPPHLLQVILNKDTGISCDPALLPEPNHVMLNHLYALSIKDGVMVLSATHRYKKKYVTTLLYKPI
Sequence of recombinant human AMPK complex 1 (containing α1β1γ1) (P54619 whole entry partner): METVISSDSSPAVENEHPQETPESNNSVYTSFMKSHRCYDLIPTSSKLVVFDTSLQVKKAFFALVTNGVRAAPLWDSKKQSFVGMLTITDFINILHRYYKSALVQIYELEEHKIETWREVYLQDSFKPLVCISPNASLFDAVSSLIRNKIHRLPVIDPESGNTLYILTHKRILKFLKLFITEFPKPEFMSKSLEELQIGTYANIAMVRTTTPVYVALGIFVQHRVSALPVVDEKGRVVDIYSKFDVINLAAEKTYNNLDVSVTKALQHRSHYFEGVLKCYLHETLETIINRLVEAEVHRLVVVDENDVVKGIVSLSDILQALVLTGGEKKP
Assay type: biochemical
Experimental: Recombinant viruses were generated by cotransfection of AMPK/pBacPak9 clones with Baculogold baculovirus DNA (Pharmingen) in spodoptera frugiperda 21 cells according to the manufacturer's instructions. Each round of virus amplification was performed for 5 days in Grace's medium containing 10% serum. Virus that had been subjected to three rounds of amplification was used for all protein production procedures. To express the AMPK complex, sf21 cells were adapted to serum free medium (SF900 II, Invitrogen) by sequential dilution from serum containing stocks into SF900 II medium and maintained in shaker flasks at 90 rpm at 27° C. The recombinant AMPK enzyme complex was produced by triple infection, one recombinant virus for each of the subunits, in sf21 cells under serum free conditions. […] Cells were harvested by centrifugation at 10,000×g for 15 minutes after 72 hours of infection with viruses. The insect cell pellet from 2 liters of culture was resuspended in 50 ml lysis buffer (20 mM Tris-HCl, 50 mM NaCl, 50 mM NaF, 30 mM Na PPi, 0.25 M sucrose, 10 mM ZnCl2, 2 mM DTT, 0.4 mg/ml digitonin) and subjected to two cycles of freeze-thaw lysis in a dry-ice ethanol bath. Insoluble material was removed by centrifugation at 10,000×g and the supernatant was fractionated with use of polyethylene glycol (PEG).
The total in vitro AMPK activation assay volume is 50 μl in a 96-well plate. […] The reaction was initiated with addition of the enzyme. After 30-minute incubation at 30° C., the reaction was stopped by addition of 80 μl 1% H3PO4. Aliquots (100 μl) were transferred to 96-well MultiScreen plates (MAPHNOB50; Millipore Corp., Bedford, Mass., USA). The plate was washed three times with 1% H3PO4 followed by detection in a Top-count. The counts per minute from the basal activity (the reaction without activator) was subtracted from each well and the data were expressed as % maximum AMP activation followed by EC50 calculation.

| SMILES | Emax |
| --- | --- |
| Cc1ccc(-c2cc3nc(Oc4ccc(C)c(C(=O)O)c4)[nH]c3cc2Cl)cc1C [Example 340, Ammonium 5-{[6-chloro-5-(3,4-dimethylphenyl)-1H-benzimidazol-2-yl]oxy}-2-methylbenzoate] | > 80% |
| Cc1ccc(Oc2nc3cc(-c4ccccc4C(C)C)c(Cl)cc3[nH]2)cc1C(=O)O [Example 329, Ammonium 5-{[6-chloro-5-(2-isopropylphenyl)-1H-benzimidazol-2-yl]oxy}-2-methylbenzoate] | > 80% |

Same assay, conditions: recombinant human AMPK complex 1 (α1β1γ1); basal activity subtracted; read-out: % Maximum AMP Activation of human AMPK Complex 1

| SMILES | Emax |
| --- | --- |
| COC(=O)c1cc(Oc2nc3cc(-c4ccc(-c5ccc(=O)n(C)c5)cc4)c(Cl)cc3[nH]2)ccc1C [Example 170, 5-{6-Chloro-5-[4-(1-methyl-6-oxo-1,6-dihydro-pyridin-3-yl)-pheny1]-1H-benzoimidazol-2-yloxy}-2-methyl-benzoic acid methyl ester] | > 80% |
| Cc1ccc(C#Cc2cc3nc(Oc4ccc(C)c(C(=O)O)c4)[nH]c3cc2Cl)cc1 [Example 45, 5-(6-Chloro-5-p-tolyethylnyl-1H-benzoimidazol-2-yloxy)-2-methyl-benzoic acid] | > 80% |
| Cc1cc(Oc2nc3cc(-c4ccc(-c5ccccc5)cc4)c(Cl)cc3[nH]2)cc(C(=O)O)c1C [Example 11, 5-(5-Biphenyl-4-yl-6-chloro-1H-benzoimidazol-2-yloxy)-2,3-dimethyl-benzoic acid] | > 80% |
| Cc1ccc(Oc2nc3cc(-c4ccc(-c5ccccc5)cc4)ccc3[nH]2)cc1C(=O)O [Example 207, 5-(5-Biphenyl-4-yl-1H-benzoimidazol-2-yloxy)-2-methyl-benzoic acid] | > 80% |
| O=c1[nH]nc(-c2cccc(Oc3nc4cc(-c5ccc(-c6ccccc6)cc5)c(Cl)cc4[nH]3)c2)o1 [Example 47, 5-[3-(5-Biphenyl-4-yl-6-chloro-1H-benzoimidazol-2-yloxy)-phenyl]-3H-[1,3,4]oxadiazol-2-one] | > 80% |
| Cc1ccc(Oc2nc3cc(-c4ccc5c(c4)c(CN(C)C)cn5C)c(Cl)cc3[nH]2)cc1C(=O)O [Example 353, 5-[6-Chloro-5-(3-dimethylaminomethyl-1-methyl-1H-indol-5-yl)-1H-benzoimidazol-2-yloxy]-2-methyl-benzoic acid] | > 80% |
| Cc1ccc(Oc2nc3cc(-c4ccc5c(c4)[nH]c4ccccc45)c(Cl)cc3[nH]2)cc1C(=O)O [Example 147, 5-[5-(9H-Carbazol-2 yl)-6-chloro-1H-benzoimidazol-2-yloxy]-2-methyl-benzoic acid] | > 80% |
| COC(=O)c1cc(Oc2nc3cc(C#Cc4ccc(F)cc4)c(Cl)cc3[nH]2)ccc1C [Example 114, 5-[6-Chloro-5-(4-fluoro-phenylethynyl)-1H-benzoimidazol-2-yloxy]-2-methyl-benzoic acid methyl ester] | > 80% |
| Cc1ccc(Oc2nc3cc(-c4ccc5c(ccn5CC5CC5)c4)c(Cl)cc3[nH]2)cc1C(=O)O [Example 252, 5-[6-Chloro-5-(1-cyclopropylmethyl-1H-indol-5-yl)-1H-benzoimidazol-2-yloxy]-2-methyl-benzoic acid] | > 80% |
| Cc1cc(Oc2nc3cc(-c4ccc(-c5ccccc5)cc4)c(Cl)cc3[nH]2)c(C)c(C(=O)O)c1 [Example 213, 3-(5-Biphenyl-4-yl-6-chloro-1H-benzoimidazol-2-yloxy)-2,5-dimethyl-benzoic acid] | > 80% |
| COC(=O)c1ccc(Oc2nc3cc(-c4ccc(-c5ccccc5)cc4)c(Cl)cc3[nH]2)cc1O [Example 31, 4-(5-Biphenyl-4-yl-6-chloro-1H-benzoimidazol-2-yloxy)-2-hydroxy-benzoic acid methyl ester] | > 80% |
| Cc1ccc(Oc2nc3cc(CCc4ccccc4)c(Cl)cc3[nH]2)cc1C(=O)O [Example 51, 5-(6-Chloro-5-phenethyl-1H-benzoimidazol-2-yloxy)-2-methyl-benzoic acid] | > 80% |
| COC(=O)c1ccc(-c2cc3nc(Oc4ccc(C)c(C(=O)O)c4)[nH]c3cc2Cl)c2ccn(C)c12 [Example 269, 4-[2-(3-Carboxy-4-methyl-phenoxy)-6-chloro-1H-benzoimidazol-5-yl]-1-methyl-1H-indole-7-carboxylic acid methyl ester] | > 80% |
| Cc1ccc(Oc2nc3cc(-c4ccc(C5CCCC5)cc4)c(Cl)cc3[nH]2)cc1C(=O)O [Example 258, 2-(3-carboxy-4-methylphenoxy)-6-chloro-5-(4-cyclopentylphenyl)-1H-3,1-benzimidazol-3-ium trifluoroacetate] | > 80% |
| Cc1ccc(Oc2nc3cc(-c4ccc(N5CCOCC5)nc4)c(Cl)cc3[nH]2)cc1C(=O)O [Example 173, 5-[6-Chloro-5-(6-morpholin-4-yl-pyridin-3-yl)-1H-benzoimidazol-2-yloxy]-2-methyl-benzoic acid] | > 80% |
| COc1ncccc1-c1ccc(-c2cc3nc(Oc4ccc(C)c(C(=O)O)c4)[nH]c3cc2Cl)cc1 [Example 199, 5-({6-chloro-5-[4-(2-methoxypyridin-3-yl)phenyl]-1-benzimidazol-2-yl}oxy)-2-methylbenzoic acid] | > 80% |
| Cc1ccc(Oc2nc3cc(C#Cc4ccc(F)cc4F)c(Cl)cc3[nH]2)cc1C(=O)O [Example 76, 5-[6-Chloro-5-(2,4-difluoro-phenylethynyl)-1H-benzoimidazol-2-yloxy]-2-methyl-benzoic acid] | > 80% |
| Cc1cc(Oc2nc3cc(-c4ccc(C(C)(C)O)cc4)c(Cl)cc3[nH]2)cc(C(=O)O)c1C [Example 316, 5-{6-Chloro-5-[4-(1-hydroxy-1-methyl-ethyl)-phenyl]-1H-benzoimidazol-2-yloxy}-2,3-dimethyl-benzoic acid] | > 80% |
| Cc1ccc(Oc2nc3cc(-c4ccc5onc(C)c5c4)c(Cl)cc3[nH]2)cc1C(=O)O [Example 141, 5-[6-Chloro-5-(3-methyl-benzo[d]isoxazol-5-yl)-1H-benzoimidazol-2-yloxy]-2-methyl-benzoic acid] | > 80% |
| CCOC(=O)Cc1ccc(Oc2nc3cc(-c4ccc(-c5ccccc5)cc4)c(Cl)cc3[nH]2)cc1C(=O)OCC [Example 9, 5-(5-Biphenyl-4-yl-6-chloro-1H-benzoimidazol-2-yloxy)-2-ethoxycarbonylmethyl-benzoic acid ethyl ester] | > 80% |
| Cc1ccc(Oc2nc3cc(-c4ccc(-n5cccn5)cc4)c(Cl)cc3[nH]2)cc1C(=O)O [Example 58, 5-[6-Chloro-5-(4-pyrazol-1-yl-phenyl)-1H-benzoimidazol-2-yloxy]-2-methyl-benzoic acid] | > 80% |
| Cc1ccc(Oc2nc3cc(-c4ccc5c(c4)C(C)(C)CCC5(C)C)c(Cl)cc3[nH]2)cc1C(=O)O [Example 358, 5-[6-Chloro-5-(5,5,8,8-tetramethyl-5,6,7,8-tetrahydro-naphthalen-2-yl)-1H-benzoimidazol-2-yloxy]-2-methyl-benzoic acid] | > 80% |
| COc1ccc(-c2ccc(-c3cc4nc(Oc5ccc(C)c(C(=O)O)c5)[nH]c4cc3Cl)cc2)cc1 [Example 172, 5-[6-Chloro-5-(4′-methoxy-biphenyl-4-yl)-1H-benzoimidazol-2-yloxy]-2-methyl-benzoic acid] | > 80% |
| Cc1ccc(Oc2nc3cc(-c4ccc(N5CCOCC5)cc4)c(Cl)cc3[nH]2)cc1C(=O)O [Example 179, 5-[6-Chloro-5-(4-morpholin-4-yl-phenyl)-1H-benzoimidazol-2-yloxy]-2-methyl-benzoic acid] | > 80% |
| Cc1ccc(Oc2nc3cc(-c4ccc5c(c4)OC(F)(F)O5)c(Cl)cc3[nH]2)cc1C(=O)O [Example 308, 5-[6-Chloro-5-(2,2-difluoro-benzo[1,3]dioxol-5-yl)-1H-benzoimidazol-2-yloxy]-2-methyl-benzoic acid] | > 80% |
| CC(=O)N1CCc2cc(-c3cc4nc(Oc5ccc(C)c(C(=O)O)c5)[nH]c4cc3Cl)ccc21 [Example 306, 5-[5-(1-Acetyl-2,3-dihydro-1H-indol-5-yl)-6-chloro-1H-benzoimidazol-2-yloxy]-2-methyl-benzoic acid] | > 80% |
| Cc1ccc(Oc2nc3cc(-c4ccc5c(C)c[nH]c5c4)c(Cl)cc3[nH]2)cc1C(=O)O [Example 291, 5-[6-Chloro-5-(3-methyl-1H-indol-6-yl)-1H-benzoimidazol-2-yloxy]-2-methyl-benzoic acid] | > 80% |
| Cc1ccc(Oc2nc3cc(-c4ccc(-c5ccc(O)cc5)cc4)c(Cl)cc3[nH]2)cc1C(=O)O [Example 104, 5-[6-Chloro-5-(4-hydroxy-biphenyl-4-yl)-1H-benzoimidazol-2-yloxy]-2-methyl-benzoic acid] | > 80% |

Same assay, conditions: recombinant human AMPK complex 1 (α1β1γ1); read-out: EC50

| SMILES | EC50 |
| --- | --- |
| COc1ccc(-c2cc3nc(Oc4ccc(C)c(C(=O)O)c4)[nH]c3cc2Cl)c(F)c1 [Example 326, 5-{[6-chloro-5-(2-fluoro-4-methoxyphenyl)-1H-benzimidazol-2-yl]oxy}-2-methylbenzoic acid] | 10 nM |
